Laboratory results taken from paper PMC3372086 (Journal of Medicinal Chemistry, 2012).
Where a name gives a salt, the structure may show the parent alone.

Tests used:
[1] = tested on: several laboratory strains and primary isolates; conditions: cited from earlier work
TZM-bl cells = test: Cytotoxicity in TZM-bl cells; assay type: cell-based; conditions: at the dose given as CC50 bound
MT-2 cells = test: Cytotoxicity in MT-2 cells; assay type: cell-based, Human; conditions: for % toxicity at that dose (number in parenthesis), MT-2 cells: at the dose given as CC50 bound

## CC1(C)CC(NC(=O)C(=O)Nc2ccc(Cl)cc2)CC(C)(C)N1 [compound 1]
[1]
  potency against several laboratory strains and primary isolates: low micromolar potency

## Cc1ccc(NC(=O)C(=O)NC(c2nc(C)c(CO)s2)C2CCCCN2)cc1F (stereo not drawn) [compound 28, N^1-(3-fluoro-4-methylphenyl)-N^2-((5-(hydroxymethyl)-4-methylthiazol-2-yl)(piperidin-2-yl)methyl)oxalamide.HCl]
TZM-bl cells
  % toxicity at that dose (number in parenthesis), TZM-bl cells: 0%

## Cc1nc(C(NC(=O)C(=O)Nc2ccc(Cl)cc2)C2CCCCN2)sc1CCO (stereo not drawn) [compound 9, N^1-(4-chlorophenyl)-N^2-((5-(2-hydroxyethyl)-4-methylthiazol-2-yl)(piperidin-2-yl)methyl)oxalamide.HCOOH]
MT-2 cells
  % toxicity at that dose (number in parenthesis), MT-2 cells: 0%

## Cc1nc(C(NC(=O)C(=O)Nc2ccc(F)cc2)C2CCCCN2)sc1CO (stereo not drawn) [compound 25, N^1-(4-fluorophenyl)-N^2-((5-(hydroxymethyl)-4-methylthiazol-2-yl)(piperidin-2-yl)methyl)oxalamide.HCl]
TZM-bl cells
  % toxicity at that dose (number in parenthesis), TZM-bl cells: 0%

## Cc1nc(C(NC(=O)C(=O)Nc2ccc(Cl)cc2)C2CCCCN2)sc1CCO.O=CO (stereo not drawn) [compound 30, N^1-(4-chlorophenyl)-N^2-((5-(2-hydroxyethyl)-4-methylthiazol-2-yl)(piperidin-2-yl)methyl)oxalamide.HCOOH]
MT-2 cells
  % toxicity at that dose (number in parenthesis), MT-2 cells: 0%
MT-2 cells; read-out: MT-2 Cells CC50 (μM ± SD), MT-2 cells, XTT, 4 days
  CC50: > 62 µM

## Cc1nc(C(NC(=O)C(=O)Nc2ccc(F)c(Cl)c2)C2CCCCN2)sc1CO (stereo not drawn) [compound 24, N^1-(3-chloro-4-fluorophenyl)-N^2-((5-(hydroxymethyl)-4-methylthiazol-2-yl)(piperidin-2-yl)methyl)oxalamide.2HCl]
TZM-bl cells
  % toxicity at that dose (number in parenthesis), TZM-bl cells: 0%

## CC1(C)CC(NC(=O)C(=O)Nc2ccc(Br)cc2)CC(C)(C)N1 [compound 2]
[1]
  potency against several laboratory strains and primary isolates: low micromolar potency

## Cc1nc(C(NC(=O)C(=O)Nc2ccc(F)c(F)c2)C2CCCCN2)sc1CO (stereo not drawn) [compound 22, N^1-(3,4-difluorophenyl)-N^2-((5-(hydroxymethyl)-4-methylthiazol-2-yl)(piperidin-2-yl)methyl)oxalamide.HCl]
TZM-bl cells
  % toxicity at that dose (number in parenthesis), TZM-bl cells: 0%
